Source: US11065234B2, “Estrogen receptor modulators” (Recurium IP Holdings, LLC, priority 2016, dated 2021)

Assays:
[1] = target: T1, ERα (Homo sapiens, UniProt P03372); experiment: ER Degradation Determination by Western Blot; assay type: cell-based; conditions: MCF-7 cells, 10 μM, 18-24 hours
T1 construct: endogenous in cells; host or cells: MCF-7
T1 sequence (P03372 1-595): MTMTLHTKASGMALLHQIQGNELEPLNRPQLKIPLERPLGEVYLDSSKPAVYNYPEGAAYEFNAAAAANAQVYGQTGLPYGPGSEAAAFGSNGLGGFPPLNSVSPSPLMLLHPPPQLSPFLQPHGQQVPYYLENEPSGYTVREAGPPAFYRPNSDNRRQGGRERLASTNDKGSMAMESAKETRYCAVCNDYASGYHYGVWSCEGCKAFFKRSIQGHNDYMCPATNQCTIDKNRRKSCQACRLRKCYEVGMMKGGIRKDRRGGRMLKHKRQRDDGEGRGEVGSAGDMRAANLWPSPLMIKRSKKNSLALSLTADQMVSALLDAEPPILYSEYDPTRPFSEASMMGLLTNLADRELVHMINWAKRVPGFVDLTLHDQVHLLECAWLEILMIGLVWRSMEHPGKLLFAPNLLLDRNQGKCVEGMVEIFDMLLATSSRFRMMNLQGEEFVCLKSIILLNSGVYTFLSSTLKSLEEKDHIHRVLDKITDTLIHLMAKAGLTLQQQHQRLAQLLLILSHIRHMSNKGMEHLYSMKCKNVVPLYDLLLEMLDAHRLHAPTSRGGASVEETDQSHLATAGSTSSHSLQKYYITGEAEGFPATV
Protocol: ER Degradation Determination by Western Blot
MCF-7 cells are plated at 0.3 million cells/mL (3 mL/well) in 6-well plates in experiment media and incubated at 37° C., 5% CO2 for […]. Next day, 10× solution of compounds are made in DMSO and added the solution to the cells to achieve a final concentration of 10 μM. A DMSO control is included to enable a determination of the relative efficacy of test compounds. Fulvestrant is used as a positive control for ER-alpha degradation, and 4-OH tamoxifen as a control for receptor stabilization. After incubating cells with compounds for 18-24 hours, cell lysates are prepared (2× Cell lysis buffer:100 mM Tris, pH 8, 300 mM NaCl, 2% NP40, 1% Na deoxycholate, 0.04% SDS, 2 mM EDTA) and mixed thoroughly and incubated on ice. The protein concentration is quantified using BCA kit. […] The gel was then transferred onto a nitrocellulose membrane. […] GAPDH protein was used as an internal control.

[2] = tested on: MCF7; experiment: Breast Cancer Cell Proliferation Assay (MCF-7); assay type: cell-based; conditions: Homo sapiens, 120 h; MCF7 cells, 5 days of compound exposure, Cell Titer-Glo
Protocol: Breast Cancer Cell Proliferation Assay (MCF-7)
MCF7 was expanded and maintained in the medium (Phenol red free DMEM/F12 (Hyclone SH30272.01) NEAA (Gibco11140-050) Na-pyruvate (Gibco 11360-070) and Re-stripped Charcoal stripped FBS (Gemini 100-119)). The cells were adjusted to a concentration of 3,000 cells per mL in the above media, and the cells were incubated (37° C., 5% CO2). The following day a 10 point, serial dilution of compounds was added to the cells at a final concentration ranging from 10-0.000005 μM for test compounds (17β-estradiol was used as a control). Additional cells were plated in 30 wells to serve as the day 1 (pretreatment) comparison. After 5 days of compound exposure, Cell Titer-Glo reagent was added to the cells and the relative luminescence units (RLUs) of each well was determined. Cell Titer-Glo was also added to 32 μL of medium without cells to obtain a background value. The plates were allowed to incubate at room temperature for 10 minutes to stabilize luminescent signal and the luminescence signal was recorded with EnSpire. The relative increase in cell number of each sample is determined as follows: (RLU sample-RLU background/RLU estrogen only treated cells-RLU background)×100=% inhibition.

[3] = Pharmacokinetic Determination (Rat PK); assay type: in vivo; conditions: plasma, female SD rats
Protocol: Example D Pharmacokinetic Determination
Grouping female SD rats weighing 200-300 g randomly to two groups; one group was administered with test compound at a dose of 3.0 mg/kg by intravenous injection, the other group was administered with test compound at a dose of 10.0 mg/kg by oral. The formulation for IV groups is DMSO/PEG400/150 mM glycine (pH 9) (5/10/85) and the formulation for PO groups is PEG400/PVP/Tween 80/0.5% CMC in water (9/0.5/0.5/90). After administering, blood samples of intravenous injection group were collected at time points of predose, 0.0833, 0.25, 0.5, 1, 2, 4, 8, 12 and 24 h; blood samples of oral group were collected at time points of predose, 0.25, 0.5, 1, 2, 4, 8, 12, and 24 h. Standard curve was plotted based on concentrations of the samples in a suitable range, the concentrations of test compounds in plasma samples were determined by using LC-MS/MS. Pharmacokinetic parameters were calculated according to drug concentration-time curve using a noncompartmental method by WinNonLin (Phoenix™, version 6.1) or other similar software.

| IC50 [2] | Structure (SMILES) | further results |
| --- | --- | --- |
| 25 to 250 nM | C[C@@H]1Cc2c([nH]c3ccccc23)[C@@H](c2c(F)cc(/C=C/C(=O)O)cc2F)N1C12CC(C(F)(F)F)(C1)C2 (single isomer, unassigned) [Example 4A] | ERα % degradation [1]: A (A = ERα % degradation ≥80%) |
| 25 to 250 nM | C[C@@H]1Cc2c([nH]c3ccccc23)[C@@H](c2c(F)cc(/C=C/C(=O)O)cc2F)N1C1CC(F)(F)C1 (single isomer, unassigned) [Example 9A] | ERα % degradation [1]: A (A = ERα % degradation ≥80%) |
| 25 to 250 nM | C[C@H]1Cc2c([nH]c3ccc(O)cc23)[C@H](c2c(F)cc(/C=C/C(=O)O)cc2F)N1CC(C)(C)F (single isomer, unassigned) [Example 13A] | – |
| ≤ 25 nM | C[C@@H]1Cc2c([nH]c3ccc(O)cc23)[C@@H](c2c(F)cc(/C=C/C(=O)O)cc2F)N1CC(C)(C)F (single isomer, unassigned) [Example 13B] | ERα % degradation [1]: B (B = ERα % degradation <80%) |
| ≤ 25 nM | CC[C@@H]1Cc2c([nH]c3ccccc23)[C@@H](c2c(F)cc(/C=C/C(=O)O)cc2F)N1[C@H]1CCOC1 (single isomer, unassigned) [Example 23A] | – |
| 25 to 250 nM | CC[C@@H]1Cc2c([nH]c3ccccc23)[C@@H](c2c(F)cc(/C=C/C(=O)O)cc2F)N1[C@@H]1CCOC1 (single isomer, unassigned) [Example 23B] | – |
| ≥ 250 nM | CC[C@@H]1Cc2c([nH]c3ccccc23)[C@@H](c2c(F)cc(/C=C/C(=O)O)cc2F)N1C12CC(C1)C2 (single isomer, unassigned) [Example 25A] | – |
| ≤ 25 nM | CC[C@H]1Cc2c([nH]c3ccccc23)[C@H](c2c(F)cc(/C=C/C(=O)O)cc2F)N1C12CC(C1)C2 (single isomer, unassigned) [Example 25B] | – |
| ≤ 25 nM | CC/C(=C(/c1ccc(/C=C/C(=O)O)cc1)c1ccc2[nH]ncc2c1)c1ccc(F)cc1Cl [ARN810, reference compound] | AUC(0-inf) ([3]; IV, 3.0 mg/kg): 5.9 µM·h; clearance ([3]; IV, 3.0 mg/kg): 19 mL/min/kg; half-life ([3]; IV, 3.0 mg/kg): 4.7 h; Vd ([3]; IV, 3.0 mg/kg, read-out: Vdss): 1.2 L/kg; bioavailability ([3]; PO 10.0 mg/kg vs IV 3.0 mg/kg): 117%; AUC(0-inf) ([3]; PO, 10.0 mg/kg): 23 µM·h; Cmax ([3]; PO, 10.0 mg/kg): 6.7 µM; Tmax ([3]; PO, 10.0 mg/kg): 1 h; half-life ([3]; PO, 10.0 mg/kg): 6.9 h |
| – | C[C@@H]1Cc2c([nH]c3ccccc23)[C@@H](c2c(F)cc(/C=C/C(=O)O)cc2F)N1C1CCOCC1 [Example 6A, (E)-3-(3,5-Difluoro-4-((1R,3R)-3-methyl-2-(tetrahydro-2H-pyran-4-yl)-2,3,4,9-tetrahydro-1H-pyrido[3,4-b]indol-1-yl)phenyl)acrylic acid] | ERα % degradation [1]: B (B = ERα % degradation <80%) |
| 25 to 250 nM | C[C@@H]1Cc2c([nH]c3ccccc23)[C@@H](c2c(F)cc(/C=C/C(=O)O)cc2F)N1[C@@H]1CCOC1 [Example 8B, (E)-3-(3,5-Difluoro-4-((1R,3R)-3-methyl-2-((R)-tetrahydrofuran-3-yl)-2,3,4,9-tetrahydro-1H-pyrido[3,4-b]indol-1-yl)phenyl)acrylic acid] | ERα % degradation [1]: B (B = ERα % degradation <80%) |
| ≥ 250 nM | C[C@@H]1Cc2c([nH]c3ccccc23)[C@H](c2c(F)cc(/C=C/C(=O)O)cc2F)N1C12CC(C1)C2 [Example 11C, (E)-3-(4-((1S,3R)-2-(Bicyclo[1.1.1]pentan-1-yl)-3-methyl-2,3,4,9-tetrahydro-1H-pyrido[3,4-b]indol-1-yl)-3,5-difluorophenyl)acrylic acid] | – |
| ≤ 25 nM | [2H][C@@]1(c2c(F)cc(/C=C/C(=O)O)cc2F)c2[nH]c3ccccc3c2C[C@@H](C)N1C12CC(C1)C2 [Example 11D, (E)-3-(4-((1R,3R)-2-(Bicyclo[1.1.1]pentan-1-yl)-3-methyl-2,3,4,9-tetrahydro-1H-pyrido[3,4-b]indol-1-yl-1-d)-3,5-difluorophenyl)acrylic acid] | – |
| ≤ 25 nM | C[C@@H]1Cc2c([nH]c3cc(O)ccc23)[C@@H](c2c(F)cc(/C=C/C(=O)O)cc2F)N1CC(C)(C)F [Example 15A, (E)-3-(3,5-Difluoro-4-((1R,3R)-2-(2-fluoro-2-methylpropyl)-7-hydroxy-3-methyl-2,3,4,9-tetrahydro-1H-pyrido[3,4-b]indol-1-yl)phenyl)acrylic acid] | – |
| ≤ 25 nM | C[C@@H]1Cc2c([nH]c3ccccc23)[C@@H](c2c(F)cc(/C=C/C(=O)O)cc2F)N1CC1(F)COC1 [Example 16A, (E)-3-(3,5-Difluoro-4-((1R,3R)-2-((3-fluorooxetan-3-yl)methyl)-3-methyl-2,3,4,9-tetrahydro-1H-pyrido[3,4-b]indol-1-yl)phenyl)acrylic acid] | – |
| 25 to 250 nM | C[C@@H]1Cc2c([nH]c3ccccc23)[C@@H](c2c(F)cc(/C=C/C(=O)O)cc2F)N1CC1COC1 [Example 17A] | – |
| ≤ 25 nM | C[C@@H]1Cc2c([nH]c3ccccc23)[C@@H](c2c(F)cc(/C=C/C(=O)O)cc2F)N1CC1(C)COC1 [Example 18A, (E)-3-(3,5-Difluoro-4-((1R,3R)-3-methyl-2-((3-methyloxetan-3-yl)methyl)-2,3,4,9-tetrahydro-1H-pyrido[3,4-b]indol-1-yl)phenyl)acrylic acid] | – |
| ≤ 25 nM | O=C(O)/C=C/c1cc(F)c(C2c3[nH]c4ccccc4c3C[C@@H](C(F)F)N2C2CCOC2)c(F)c1 (stereo partly drawn) [Example 19A, (E)-3-(4-((3S)-3-(Difluoromethyl)-2-(tetrahydrofuran-3-yl)-2,3,4,9-tetrahydro-1H-pyrido[3,4-b]indol-1-yl)-3,5-difluorophenyl)acrylic acid] | – |
| 25 to 250 nM | CC1(C)Cc2c([nH]c3ccccc23)C(c2c(F)cc(/C=C/C(=O)O)cc2F)N1CC12CC(C1)C2 (stereo not shown) [Example 22, (E)-3-(4-(2-(Bicyclo[1.1.1]pentan-1-ylmethyl)-3,3-dimethyl-2,3,4,9-tetrahydro-1H-pyrido[3,4-b]indol-1-yl)-3,5-difluorophenyl)acrylic acid] | – |
| 25 to 250 nM | CCC1Cc2c([nH]c3ccccc23)C(c2c(F)cc(/C=C/C(=O)O)cc2F)N1CC12CC(C1)C2 (stereo not shown) [Example 24, (E)-3-(4-(2-(Bicyclo[1.1.1]pentan-1-ylmethyl)-3-ethyl-2,3,4,9-tetrahydro-1H-pyrido[3,4-b]indol-1-yl)-3,5-difluorophenyl)acrylic acid] | – |
| ≥ 250 nM | C[C@@H]1Cc2c(n(C)c3ccccc23)[C@@H](c2c(F)cc(/C=C/C(=O)O)cc2F)N1C12CC(C1)C2 [Example 26A, (E)-3-(4-((1R,3R)-2-(bicyclo[1.1.1]pentan-1-yl)-3,9-dimethyl-2,3,4,9-tetrahydro-1H-pyrido[3,4-b]indol-1-yl)-3,5-difluorophenyl)acrylic acid] | – |
